Measurements published in US20120220577A1, “GLYCINE B ANTAGONISTS” (Merz Pharma GmbH & Co KgaA, priority 2009, published 2012).

Each molecule was assayed against T1, glycine binding pocket of the NMDA receptor (Rattus norvegicus, UniProt P35439) (assay: [3H]MDL-105,519 displacement studies (rat cortical membranes)). Settings: displacement of 2 nM [3H]-MDL-105,519, rat cortical membranes; read-out: NMDA-MDL 105519-r-CTX - IC50.
T1 construct: For isolation of the cell membranes, the cortices are homogenized; from tissue; host or cells: rat cerebral cortex membranes (male Sprague-Dawley)
Experimental: Anaesthetised male Sprague-Dawley rats (200-250 g, Janvier, Le Genest-Isle, France) are decapitated and their brains removed rapidly. […] For isolation of the cell membranes, the cortices are homogenized in 20 volumes of ice-cold 0.32 M sucrose (Sigma-Aldrich, Taufkirchen, Germany) using a glass-Teflon homogenizer. The homogenate is centrifuged at 1000×g for 10 minutes, the pellet is discarded and the supernatant centrifuged at 20,000×g for 20 minutes. The resulting pellet is re-suspended in 20 volumes of distilled water and centrifuged for 20 minutes at 8000×g. The supernatant and the buffy coat are then centrifuged three times (48,000×g for 20 minutes) in the presence of 50 mM Tris-HCl, pH 8.0 (assay buffer). All centrifugation steps are carried out at 4° C. After resuspension in 5 volumes of 50 mM Tris-HCl, pH 7.5, the membrane suspension is frozen rapidly at −80° C. On the day of assay, the membranes are thawed and washed four times by resuspension in 50 mM Tris-HCl, pH 7.5, and centrifugation at 48,000×g for 20 minutes. The final pellet is suspended in assay buffer. […] The final protein concentration used for our studies is 400 μg/ml.
A robotic system designed for binding assays (Tecan Deutschland GmbH, Crailsheim, Germany) is loaded with the membrane solution, solutions for bound control (buffer/DMSO 20%), unlabeled glycine (1 mM) for evaluation of non-specific binding, all compounds to be tested (at 20-fold concentrations), radioligand and respective 96-well plates.
The protein/receptor concentration is held constant whereas the amount of specific bound radioligand is determined using increasing concentrations of ligand.
Firstly, the assay plates are loaded with membrane solution and are shaken at 4° C. The mother plates are then prepared by pipetting the compounds into assay buffer/20% DMSO to obtain the desired final concentrations (dose response curve with five different concentrations, e.g. 10, 3, 1, 0.3, and 0.1 μM). After transferring radioligand into the assay plates, the compounds are added (including the bound and the non-specific binding control). The final DMSO concentration is 1%. The assay plates are incubated and shaken at 4° C. for 1 h, before the mixture is exhausted as rapidly as possible via a vacuum manifold using the Multiscreen HTS glass fibre (type B) filter plates (Millipore, Schwalbach, Germany) under a constant vacuum of 450 mbar. The membranes are washed four times with cold assay buffer ([…]). 50 μL of Ultima Gold scintillation cocktail (PerkinElmer, Rodgau-Jügesheim, Germany) is added to the wet filter plates and incubated at room temperature overnight before counting the disintegration per minutes using a liquid scintillation counter (MicroBeta, PerkinElmer, Rodgau-Jügesheim, Germany).
The residual radioactivity after displacement of the test compound (n=5) is then corrected with respect to the set controls.
Work on O=C(COc1cc(C(=O)O)cc2cc(Cl)cc(Cl)c12)Nc1ccc(-c2nnn[nH]2)cc1 [Example 89, 5,7-Dichloro-4-{[4-(1H-tetrazol-5-yl)-phenylcarbamoyl]-methoxy}-naphthalene-2-carboxylic acid] yielded an IC50 of 1260 nM. NC(=O)COc1cccc(NC(=O)COc2cc(C(=O)O)cc3cc(Cl)cc(Cl)c23)c1 [Example 93, 4-[(3-Carbamoylmethoxy-phenylcarbamoyl)-methoxy]-5,7-dichloro-naphthalene-2-carboxylic acid] showed an IC50 of 520 nM. With N#Cc1cccc(NC(=O)COc2cc(C(=O)O)cc3cc(Cl)cc(Cl)c23)c1 [Example 98, 5,7-Dichloro-4-[(3-cyano-phenylcarbamoyl)-methoxy]-naphthalene-2-carboxylic acid] the IC50 was 1120 nM. Work on CN(C)C(=O)COc1ccccc1NC(=O)COc1cc(C(=O)O)cc2cc(Cl)cc(Cl)c12 [Example 102, 5,7-Dichloro-4-[(2-dimethylcarbamoylmethoxy-phenylcarbamoyl)-methoxy]-naphthalene-2-carboxylic acid] yielded an IC50 of 134 nM. Molecule CN(C)CCNC(=O)COc1ccccc1NC(=O)COc1cc(C(=O)O)cc2cc(Cl)cc(Cl)c12 [Example 109, 5,7-Dichloro-4-({2-[(2-dimethylamino-ethylcarbamoyl)-methoxy]-phenylcarbamoyl}-methoxy)-naphthalene-2-carboxylic acid] has an IC50 of 650 nM. Work on CN(C)CCN(C)C(=O)COc1ccccc1NC(=O)COc1cc(C(=O)O)cc2cc(Cl)cc(Cl)c12 [Example 110, 5,7-Dichloro-4-[(2-{[(2-dimethylamino-ethyl)-methyl-carbamoyl]-methoxy}-phenylcarbamoyl)-methoxy]-napthalene-2-carboxylic acid] yielded an IC50 of 1310 nM. Molecule CNCc1ccc(NC(=O)COc2cc(C(=O)O)cc3cc(Cl)cc(Cl)c23)c(OCC(=O)O)c1 [Example 111, 4-[(2-Carboxymethoxy-4-methylaminomethyl-phenylcarbamoyl)-methoxy]-5,7-dichloro-naphthalene-2-carboxylic acid] has an IC50 of 24 nM. With N#CCc1ccc(NC(=O)COc2cc(C(=O)O)cc3cc(Cl)cc(Cl)c23)cc1 [Example 112, 5,7-Dichloro-4-[(4-cyanomethyl-phenylcarbamoyl)-methoxy]-naphthalene-2-carboxylic acid] the IC50 was 637 nM. O=C(COc1cc(C(=O)O)cc2cc(Cl)cc(Cl)c12)Nc1cccc2cc(C(=O)O)oc12 [Example 115, 7-[2-(3-Carboxy-6,8-dichloro-naphthalen-1-yloxy)-acetylamino]-benzofuran-2-carboxylic acid] showed an IC50 of 7 nM. In the case of CNC(=O)COc1cc(CN)ccc1NC(=O)COc1cc(C(=O)O)cc2cc(Cl)cc(Cl)c12 [Example 116, 4-[(4-Aminomethyl-2-methylcarbamoylmethoxy-phenylcarbamoyl)-methoxy]-5,7-dichloro-naphthalene-2-carboxylic acid], the IC50 is reported as 297 nM. N#Cc1ccc(CNC(=O)COc2cc(C(=O)O)cc3cc(Cl)cc(Cl)c23)cc1 [Example 117, 5,7-Dichloro-4-[(4-cyano-benzylcarbamoyl)-methoxy]-naphthalene-2-carboxylic acid] gave an IC50 of 1940 nM. CN(C)C(=O)COc1cc(CN)ccc1NC(=O)COc1cc(C(=O)O)cc2cc(Cl)cc(Cl)c12 [Example 123, 4-[(4-Aminomethyl-2-dimethylcarbamoylmethoxy-phenylcarbamoyl)-methoxy]-5,7-dichloronaphthalene-2-carboxylic acid] was tested, and the IC50 was 113 nM. O=C(COc1cc(C(=O)O)cc2cc(Cl)cc(Cl)c12)Nc1cccc(CO)c1OCCO [Example 124, 5,7-Dichloro-4-{[2-(2-hydroxy-ethoxy)-3-hydroxymethyl-phenylcarbamoyl]-methoxy}-naphthalene-2-carboxylic acid] showed an IC50 of 428 nM. O=C(COc1cc(C(=O)O)cc2cc(Cl)cc(Cl)c12)NCc1ccccc1OCc1nnn[nH]1 [Example 125, 5,7-Dichloro-4-{[2-(1H-tetrazol-5-ylmethoxy)-benzylcarbamoyl]-methoxy}-naphthalene-2-carboxylic acid] gave an IC50 of 254 nM.
